Measured values reported in patent publication US10046150B2, “Lysine delivery systems for blood coagulation” (Park City Bio, LLC, priority 2013, dated 2018).

System: nose bleed
Test: treatment of a nose bleed with a nose plug (tissue, gauze or absorbent body) carrying lysine powder
Type: in vivo
Experimental: As a control, regular tissue and regular gauze were used to treat a nose bleed by rolling or otherwise fashioning a nose plug from the materials, and no lysine was added. The tissues and gauze appear to absorb the blood, but the blood continues to flow. In some instances, the blood flow can be significant and require a large number of sequential tissues or gauze. Nose bleeds treated with tissues can last 10 minutes or more up to an hour or longer when the bleed is significant. In some instances a nose bleed can be from both nostrils and both nostrils have to be plugged with a nose plug.
The nose bleed often stops within 1 minute when the tissue includes lysine, compared a long period when only tissues are used. A significant bleed was stopped within 5 minutes when lysine was included in the gauze. […] Available lysine was present after the nose bleed was treated to stop blood flow. […] Accordingly, substantially less than 500 mg lysine (E.g., 5 mg) is needed to stop bleeding in a short time. The device including the tissue and the lysine powder is able to be withdrawn with the blood no longer flowing through the nose.
Additionally, there was still excess powder. The gauze was rolled up with the lysine powder at one end, and the lysine powder was inserted into the nose, then the gauze was released and allowed to expand and plug the nose.
FIG. 12—illustrate an embodiment of a method of making a blood coagulating device with a lysine reservoir. […] The gauze is not hemostatic (Walgreens Premium Rolled Gauze—for secure dressings and light absorption. The device is made by: forming an absorptive body to a size and shape of a sheet; placing lysine powder on a surface of the sheet, where the lysine may be anywhere, but shown to be placed along a center crease. Adhesive is used to stick the surface to itself when the substrate is folded at the center crease so that the folded body has the lysine at the fold. The additional adhesive is put on the surface that is showing, and the sheet is rolled into a cylindrical device. The device has the lysine in a multi-layered chamber with the lysine located at one end. […] The marked end of the controls is not inserted in the nose.

`NCCCC[C@H](N)C(=O)O` [lysine] was tested, and the “time until the nose bleed stopped” value (hemostat gauze (regenerated etherized and oxidized natural fiber cellulose) having about 250 mg lysine powder, slower bleed) was “within a minute”, the “time until the gauze could be removed” value (hemostat gauze having about 250 mg lysine powder, slower bleed) was “just over a minute” and the “effect on blood flow / bleeding (in words)” value (nose bleed) was “promotes clotting”. For the same molecule, the “blood absorbed by the device (in words)” value (nose bleed, compared with control without lysine where stated) was “didn't absorb much blood”.
